According to patent US5811445A, “Method of preventing abnormal stimulation of AT1 and AT2 receptors” (Roussel Uclaf, priority 1994, dated 1998):
Counter-ions that a name gives are not always drawn. Like-named read-outs stand apart in the source and are kept apart here.

Tests used:
[1] = target: T1, AT2 receptor of angiotensin II (Oryctolagus cuniculus, UniProt G1T351); assay: Test on the AT2 receptor of angiotensin II (displacement of 125I angiotensin II, rabbit uterus membranes); type: binding
T1 construct: A fresh membrane preparation obtained from rabbit's uterus is used; from tissue; host or cells: uterus membranes of estradiol-treated rabbits
T1 sequence (G1T351 1-363): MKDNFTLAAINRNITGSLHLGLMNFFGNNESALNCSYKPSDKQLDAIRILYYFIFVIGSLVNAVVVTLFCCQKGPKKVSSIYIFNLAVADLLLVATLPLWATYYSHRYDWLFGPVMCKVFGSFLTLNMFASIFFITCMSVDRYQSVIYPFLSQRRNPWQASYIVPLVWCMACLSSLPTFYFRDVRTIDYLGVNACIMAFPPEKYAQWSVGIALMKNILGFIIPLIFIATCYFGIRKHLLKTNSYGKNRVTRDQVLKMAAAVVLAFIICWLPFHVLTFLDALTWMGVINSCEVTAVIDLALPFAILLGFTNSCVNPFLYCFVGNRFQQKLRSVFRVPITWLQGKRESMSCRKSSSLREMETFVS
Protocol: 2) Test on the AT2 receptor of angiotensin II
The tissue is ground up in a polytron in a 50 mM Tris buffer pH 7.4, and the grinding is followed by 3 centrifugations at 30,000 g for 15 minutes, with intermediate take up of the pellets in the Tris buffer pH 7.4.
The homogenate obtained is preincubated for 20 minutes at 25° C. in the presence of 10 mM dithiothreitol, then brought back to 0°-4° C.
(§1) The product is first tested at 3.10^-5 M three times. When the tested product displaces more than 50% of the radioactivity specifically bound to the receptor, it is tested again according to a range of 7 concentrations in order to determine the concentration which inhibits by 50% the radioactivity specifically bound to the receptor. In this way the 50% inhibitory concentration is determined.
(§2) After incubation at 25° C. for 150 minutes, placing in a water-bath at 0° C. for 5 minutes, filtration under vacuum, and rinsing with Tris buffer pH 7.4, the radioactivity is counted in the presence of a scintillating solid.

[2] = target: T2, AT1 receptor of angiotensin II (Rattus norvegicus, UniProt P25095); assay: Test on the AT1 receptor of angiotensin II (displacement of 125I angiotensin II, rat liver membranes); type: binding
T2 construct: A fresh membrane preparation obtained from rat's liver is used; from tissue; host or cells: rat liver membranes
T2 sequence (P25095 1-359): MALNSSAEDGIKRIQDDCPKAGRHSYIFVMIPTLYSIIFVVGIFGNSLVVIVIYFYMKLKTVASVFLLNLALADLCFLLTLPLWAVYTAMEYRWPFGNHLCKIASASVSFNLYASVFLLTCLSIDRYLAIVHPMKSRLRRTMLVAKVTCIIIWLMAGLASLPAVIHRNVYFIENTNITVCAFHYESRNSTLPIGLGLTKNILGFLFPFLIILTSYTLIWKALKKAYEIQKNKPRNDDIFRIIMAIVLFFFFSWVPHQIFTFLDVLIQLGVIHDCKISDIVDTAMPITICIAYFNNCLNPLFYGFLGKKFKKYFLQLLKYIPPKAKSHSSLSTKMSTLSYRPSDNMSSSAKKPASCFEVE
Protocol: 1 - Test on the AT1 -receptor of angiotensin II
A fresh membrane preparation obtained from rat's liver is used. The tissue is ground up in a polytron in a 50 mM Tris buffer pH 7.4, the grinding is followed by 3 centrifugations at 30,000 g for 15 minutes with intermediate take up of the pellets in the Tris buffer pH 7.4.
as §1, with “(The” for “The”, “with 3×10^-5” for “at 3.10^-5”, “times).” for “times.”, “determined).” for “determined.”
as §2

[3] = rabbit uterus membrane (estradiol pre-treated), 125I angiotensin II, 25° C., 150 minutes, read-out: AT2 Receptor IC50
[4] = rat liver membrane, 125I angiotensin II, 25° C., 150 minutes, read-out: AT1 Receptor IC50
[5] = products P1 to P13, expressed in nM, read-out: On AT1 receptor IC50
[6] = products P1 to P13, expressed in nM, read-out: On AT2 receptor IC50

| IC50 [1, 3] [nM] | IC50 [2, 4] [nM] | IC50 [2, 5] [nM] | IC50 [1, 6] [nM] | Structure (SMILES) |
| --- | --- | --- | --- | --- |
| 1.3 |  |  |  | CCc1nc(SC)c(C(=O)O)n1Cc1ccc(-c2ccccc2S(=O)(=O)NC(=O)NCC2CCCCC2)cc1 [Example 69, potassium 1-((2'-(((((cyclohexylmethyl)amino)carbonyl)amino)sulphonyl) (1,1'-biphenyl 4-yl)methyl) 2-ethyl 4-(methylthio) 1H-imidazole 5-carboxylate (potassium salt)] |
| 8.5 | 3.4 |  |  | CCCCc1nc(SC)c(C(C)(O)C(=O)O)n1Cc1ccc(-c2ccccc2S(=O)(=O)NC(=O)NCCC)cc1 (stereo not drawn) [Example 9, 2-butyl alpha-hydroxy alpha-methyl 4-(methylthio) 1-[(2'-((((propylamino)carbonyl)amino)sulphonyl) (1,1'-biphenyl) 4-yl)methyl] 1H-imidazole 5-acetic acid] |
|  |  | 5.9 | 63 | CCCCc1nc(OC)c(C=O)n1Cc1ccc(-c2ccccc2S(=O)(=O)NC(=O)OCc2ccccc2)cc1 [Example P13, (phenylmethyl) ((4'-((2-butyl 5-formyl 4-methoxy 1H-imidazol 1-yl)methyl) (1,1'-biphenyl) 2-yl)sulphonyl) carbamate] |
|  | 0.08 |  |  | CCCCc1nc(Cl)c(C(=O)O)n1Cc1ccc(-c2ccccc2S(=O)(=O)NC(=O)NCc2ccccc2)cc1 [Example 59] |
|  |  | 0.14 | 17 | CCCCc1nc(SC)c(C(=O)O)n1Cc1ccc(-c2ccccc2S(=O)(=O)NC(=O)OCc2cccs2)cc1 [Example P8, 2-butyl 4-(methylthio) 1-[(2'-((((2-thienyl)methoxycarbonyl)amino)sulphonyl) (1,1'-biphenyl) 4-yl)methyl] 1H-imidazole 5-carboxylic acid] |
|  |  | 0.5 | 47 | CCCCc1nc(SC)c(C(=O)O)n1Cc1ccc(-c2ccccc2S(=O)(=O)NC(=O)NCCCCc2ccccc2)cc1 [Example P4, 2-butyl 4-(methylthio) 1-[(^2 '-(((((1-(4-phenylbutyl))amino)carbonyl)amino)sulphonyl) (1,1'-biphenyl) 4-yl)methyl] 1H-imidazole 5-carboxylic acid] |
|  | 0.06 |  |  | CCc1nc(SC)c(C(=O)O)n1Cc1ccc(-c2ccccc2S(=O)(=O)NC(=O)NCc2ccccc2)cc1 [Example 44, 2-ethyl 4-(methylthio) 1-((2'-(((((phenylmethyl)amino)carbonyl)amino)sulphonyl) (1,1'-biphenyl) 4-yl)methyl) 1H-imidazole 5-carboxylic acid] |
| 1.6 | 24 |  |  | CCCCc1nc(SC)c(C(C)(O)C(=O)O)n1Cc1ccc(-c2ccccc2S(=O)(=O)NC(=O)NCc2ccccc2)cc1 (stereo not drawn) [Example 11] |
|  |  | 0.19 | 53 | CCCCc1nc(SC)c(C(=O)O)n1Cc1ccc(-c2ccccc2S(=O)(=O)NC(=O)OCc2ccsc2)cc1 [Example P9, 2-butyl 4-(methylthio) 1-[(2'-((((3-thienyl)methoxycarbonyl)amino)sulphonyl) (1,1'-biphenyl) 4-yl)methyl] 1H-imidazole 5-carboxylic acid] |
|  |  | 0.7 | 31 | CCCCc1nc(SC)c(C(=O)O)n1Cc1ccc(-c2ccccc2S(=O)(=O)NC(=O)OCC2CC=CCC2)cc1 (stereo not drawn) [Example P10, 2-butyl 1-[(2'-((((cyclohexen 4-yl)methoxycarbonyl)amino)sulphonyl) (1,1'-biphenyl) 4-yl)methyl] 4-methylthio 1H-imidazole 5-carboxylic acid] |
| 3.5 |  |  |  | CCCc1nc(SC)c(C(=O)O)n1Cc1ccc(-c2ccccc2S(=O)(=O)NC(=O)Nc2ccc(C)cc2)cc1 [Example 63, 1-((2'-(((((4-methylphenyl)amino)carbonyl)amino)sulphonyl) (1,1'-biphenyl) 4-yl)methyl) 4-(methylthio) 2-propyl 1H-imidazole 5-carboxylic acid] |
|  |  | 0.8 | 54 | CCCCc1nc(SC)c(C(=O)O)n1Cc1ccc(-c2ccccc2S(=O)(=O)NC(=O)OCc2ccccc2)cc1 [Example P12, 2-butyl 4-(methylthio) 1-[(2'-(((phenylmethoxycarbonyl)amino)sulphonyl) (1,1'-biphenyl) 4-yl)methyl] 1H-imidazole 5-carboxylic acid] |
|  |  | 0.4 | 49 | CCCCc1nc(SC)c(C(=O)O)n1Cc1ccc(-c2ccccc2S(=O)(=O)NC(=O)NC(Cc2ccccc2)C(=O)O)cc1 (stereo not drawn) [Example P7, 2-butyl 1-[(2'-(((((1-(1-carboxy 2-phenyl)ethyl)amino)carbonyl)amino)sulphonyl) (1,1'-biphenyl) 4-yl)methyl] 4-methylthio 1H-imidazole 5-carboxylic acid] |
|  |  | 0.14 | 24 | CCCCc1nc(SC)c(C(=O)O)n1Cc1ccc(-c2ccccc2S(=O)(=O)NC(=O)OCC2CCCCC2)cc1 [Example P11, 2-butyl 1-[(2'-((((cyclohexyl)methoxycarbonyl)amino)sulphonyl) (1,1'-biphenyl) 4-yl)methyl] 4-methylthio 1H-imidazole 5-carboxylic acid] |
| 2.1 |  |  |  | CCCc1nc(SC(F)F)c(C(=O)O)n1Cc1ccc(-c2ccccc2S(=O)(=O)NC(=O)CCC2CCCC2)cc1 [Example 54] |
| 6.5 | 2.5 |  |  | CCCc1nc(SC)c(C(O)C(=O)O)n1Cc1ccc(-c2ccccc2S(=O)(=O)NC(=O)NCc2ccccc2)cc1 (stereo not drawn) [Example 21] |
| 1.9 | 6.3 |  |  | CCCCc1nc(SC)c(C(C)(O)C(=O)O)n1Cc1ccc(-c2ccccc2S(=O)(=O)NC(=O)NCC2CCCCC2)cc1 (stereo not drawn) [Example 13, 2-butyl 1-[(2'-(((((cyclohexylmethyl)amino)arbonyl)amino)sulphonyl) (1,1'-biphenyl) 4-yl)methyl] alpha-hydroxy alpha-methyl 4-(methylthio) 1H-imidazole 5-acetic acid] |
|  |  | 0.27 | 10 | CCCCc1nc(SC)c(C(=O)O)n1Cc1ccc(-c2ccccc2S(=O)(=O)NC(=O)NCc2ccc(F)cc2)cc1 [Example P6, 2-butyl 1-[(2'-((((((4-fluoro)phenylmethyl)amino)carbonyl)amino)sulphonyl) (1,1,1-biphenyl) 4-yl)methyl] 4-methylthio 1H-imidazole 5-carboxylic acid] |
|  |  | 0.1 | 14 | CCCCc1nc(SC)c(C(=O)O)n1Cc1ccc(-c2ccccc2S(=O)(=O)NC(=O)NCc2ccccc2)cc1 [Example P2, 2-butyl 4-(methylthio) 1-[(2'-(((((phenylmethyl)amino)carbonyl)amino)sulphonyl) (1,1'-biphenyl) 4-yl)methyl] 1H-imidazole 5-carboxylic acid] |
| 5.8 |  |  |  | CCCc1nc(SC(F)F)c(C(=O)O)n1Cc1ccc(-c2ccccc2S(=O)(=O)NC(=O)NCCC2=CCCCC2)cc1 [Example 56, 1-((2'-(((((2-cyclohexen-1-yl-ethyl)amino)carbonyl)amino)sulphonyl) (1,1'-biphenyl) 4-yl)methyl) 4-((difluoromethyl)thio) 2-propyl 1H-imidazole 5-carboxylic acid] |

| Structure (SMILES) | IC50 [1, 3] [nM] | IC50 [2, 4] [nM] | IC50 [2, 5] [nM] | IC50 [1, 6] [nM] |
| --- | --- | --- | --- | --- |
| CCCc1nc(SC)c(C(O)(C(=O)O)c2ccccc2)n1Cc1ccc(-c2ccccc2S(=O)(=O)NC(=O)NCc2ccccc2)cc1 (stereo not drawn) [Example 34, alpha-hydroxy 4-(methylthio) alpha-phenyl 1-((2'-(((((phenylmethyl)amino)carbonyl)amino)sulphonyl) (1,1'-biphenyl) 4-yl)methyl) 2-propyl 1H-imidazole 5-acetic acid] | 2.1 | 0.7 |  |  |
